Common to all, as to format: cell-based
The target in experiment [1] is T1, human GABAC-ρ1 receptor (Homo sapiens, UniProt P24046).
T1 construct: expressed in transfected cells; host or cells: Xenopus laevis oocytes (mRNA injection)
The experiment is described as follows: Voltage-clamp: modulation of GABA-induced currents by co-applied SCC-tau. Particulars: for EC50: EC50 (potentiation of GABA current); for IC50: read-out: IC50 (decrease of GABA-activated current). The procedure:
(§1) All the animals were handled in accordance with guidelines of the National Institutes of Health Guide for Care and Use of Laboratory Animals and with the approval of the Institutional Animal Care and Use Committee of the National University of Mexico. We used Ethyl 3-aminobenzoate methanesulfonate (MS-222) at 0.17% for 30 min, to anesthetize the Xenopus laevis frogs. The oocytes were manually removed and enzymatically defolliculated at room temperature using collagenase type I (0.3 μg/μl) for 45 min. Later, oocytes were kept in Barth’s medium (in mM): 88, NaCl; 1, KCl; 0.33, […]; 0.41, CaCl2; 0.82, MgSO4; 2.4, NaHCO3; 5, HEPES; pH 7.4 and 0.1 mg/ml gentamicin sulfate. After 24 h, 0.5 μg/μl of human GABAC-ρ1R mRNA was injected in vegetal hemisphere of the oocyte, and electrophysiological recordings were obtained 2–3 days after injection.
(§2) Membrane currents elicited by GABA and SCC-tau were recorded using the two-microelectrode voltage-clamp technique. Oocytes were placed in a chamber, with a volume of 500 μl, and impaled with two microelectrodes previously filled with 3 M KCl (0.5–2.5 MΩ) and clamped at − 60 mV. […] All recordings were done at 20–23 °C in a chamber continuously perfused at 5–10 ml/min of Ringer solution (in mM): 115, NaCl; 2, KCl; 1.8, CaCl2; 5, HEPES, pH 7.4. All drugs were purchased from SIGMA-ALDRICH (San Louis Missouri, USA). […] The pH of all solutions was adjusted to 7.4.
(§3) Results are reported as mean ± S.E. of the values obtained from several cells, each value being the average of measurements in different cells. Data from each experiment were collected from at least seven oocytes. Agonist concentration–response curves were constructed by measuring the maximum response evoked by each agonist concentration. […] The half-inhibitory concentration (IC50) of Homo was estimated by fitting the following equation: A=Amax/(1+10^[[agonist]-logEC50) . Differences among groups were statistically analyzed by ANOVA and Tukey–Kramer post-test, and were considered significant when P < 0.05. Control responses to GABA were obtained before and after each drug application to account for possible shifts in the amplitude of the control current. To determine the time constants for the activation (τact) and deactivation (τdeac) of GABA-, Homo- and Hypo-currents responses, a decay function of the form: I(τ) = exp(− t/τ d) + C, where I is the current and t is time, was fit to the experimental data (Origin 6.0 software; Northampton, MA). Differences between groups were statistically analyzed by ANOVA and a Tukey–Kramer post-test, and were considered significant at the level P < 0.05.

The target in experiment [2] is T1, human GABAC-ρ1 receptor. The experiment is described as follows: Two-microelectrode voltage-clamp: currents activated by GABA or SCC-tau in oocytes expressing GABAC-ρ1R. Particulars: for Hill coefficient (nH) / EC50: agonist alone; for Hill coefficient (nH): dose-response relationship; for activation time of the currents (τact) / deactivation time (τdeac): currents activated by GABA, Hypo or Homo; for EC50: Xenopus laevis oocytes clamped at −60 mV. The procedure:
as §1
Oocytes were placed in a chamber, with a volume of 500 μl, and impaled with two microelectrodes previously filled with 3 M KCl (0.5–2.5 MΩ) and clamped at − 60 mV. […] All recordings were done at 20–23 °C in a chamber continuously perfused at 5–10 ml/min of Ringer solution (in mM): 115, NaCl; 2, KCl; 1.8, CaCl2; 5, HEPES, pH 7.4. All drugs were purchased from SIGMA-ALDRICH (San Louis Missouri, USA). […] The pH of all solutions was adjusted to 7.4.
Results are reported as mean ± S.E. of the values obtained from several cells, each value being the average of measurements in different cells. Data from each experiment were collected from at least seven oocytes. Agonist concentration–response curves were constructed by measuring the maximum response evoked by each agonist concentration. […] The half-inhibitory concentration (IC50) of Homo was estimated by fitting the following equation: A=Amax/(1+10^[[agonist]-logEC50) . Differences among groups were statistically analyzed by ANOVA and Tukey–Kramer post-test, and were considered significant when P < 0.05. […] Differences between groups were statistically analyzed by ANOVA and a Tukey–Kramer post-test, and were considered significant at the level P < 0.05.

Experiment [3] deals with T1, human GABAC-ρ1 receptor. The experiment in a line: Voltage-clamp: inhibition of GABA- and SCC-tau-induced currents by TPMPA and picrotoxin. The method, then:
as §1, §2, §3

Where [4] appears, read: receptor activated by 3 µM GABA.
The mark [5] stands for this setting: receptor activated by 70 µM Homo.
Where [6] appears, read: receptor activated by 3 mM Hypo.

One may read the IC50 as the concentration that inhibits the measured activity by half. What is called EC50 is the concentration at which the effect is half-maximal.

T1 sequence (P24046 22-479): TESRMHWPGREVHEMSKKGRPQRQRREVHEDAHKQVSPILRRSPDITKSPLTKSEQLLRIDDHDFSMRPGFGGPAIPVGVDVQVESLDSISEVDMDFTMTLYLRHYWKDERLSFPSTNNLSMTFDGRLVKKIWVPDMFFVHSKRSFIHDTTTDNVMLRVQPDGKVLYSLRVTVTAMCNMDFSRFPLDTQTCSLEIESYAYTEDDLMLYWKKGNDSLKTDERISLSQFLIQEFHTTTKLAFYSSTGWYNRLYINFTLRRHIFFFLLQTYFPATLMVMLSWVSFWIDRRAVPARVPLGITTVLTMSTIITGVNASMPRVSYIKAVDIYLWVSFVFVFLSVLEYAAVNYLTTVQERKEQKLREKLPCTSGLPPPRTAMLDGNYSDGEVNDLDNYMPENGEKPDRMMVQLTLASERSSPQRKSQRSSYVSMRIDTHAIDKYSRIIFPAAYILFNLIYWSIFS

Consider `O=S(=O)(O)CCO` [IA, 2-hydroxyethanesulfonic acid], for which the “effect on GABA-induced currents” value at human GABAC-ρ1 receptor [1] (co-application with GABA, data not shown) was “did not observe any effect”. Further, the “activation of current (effect on receptor)” value at human GABAC-ρ1 receptor [2] (compound perfused alone at the concentrations tested) is on record as “did not show any affect”.
In the case of `CP(=O)(O)C1=CCNCC1` [TPMPA, Methyl(1,2,5,6-tetrahydropyridine-4-yl) phosphinic acid], the IC50 against human GABAC-ρ1 receptor [3] (setting [4]) is 1.2 ± 0.1 µM; against human GABAC-ρ1 receptor [3] (setting [5]), 1.4 ± 0.1 µM; against human GABAC-ρ1 receptor [3] (setting [6]), 2 ± 0.2 µM.
In the case of `NCCCC(=O)O` [GABA, γ-aminobutyric acid], at human GABAC-ρ1 receptor [2], the “Hill coefficient (nH)” value worked out at 1.5, the “activation time of the currents (τact)” value came to 1 ± 0.2 min and the “deactivation time (τdeac)” value was found to be 1.7 ± 0.5 min.
Turning to `NCCS(=O)O` [Hypo, 2-Aminoethanesulfinic acid], the concentration giving a half-maximal response (EC50) on human GABAC-ρ1 receptor [1] (co-applied with 1.5 µM GABA) turned out to be 87 ± 1.5 µM. The EC50 on human GABAC-ρ1 receptor [1] (co-applied with 3 µM GABA) amounted to 170 ± 1.7 µM. The 50% effective concentration (EC50) on human GABAC-ρ1 receptor [1] (co-applied with 6 µM GABA) amounted to 480 ± 2.1 µM. Also, at human GABAC-ρ1 receptor [2], the “Hill coefficient (nH)” value stood at 2.2, a half-maximal effect (EC50) was put at 3000 ± 1500 µM, the “activation time of the currents (τact)” value amounted to 1.5 ± 0.1 min and the “deactivation time (τdeac)” value was 3.4 ± 1.1 min.
For the compound `NCCCS(=O)(=O)O` [Homo, 3-Aminopropane-1-sulfonic acid], on human GABAC-ρ1 receptor [1] (co-applied with 1.5 µM GABA), the 50% inhibitory concentration (IC50) was 40 ± 1 µM. For the same compound, on human GABAC-ρ1 receptor [1] (co-applied with 3 µM GABA), the IC50 amounted to 90 ± 1.5 µM. The IC50 on human GABAC-ρ1 receptor [1] (co-applied with 6 µM GABA) stood at 410 ± 2.9 µM. In addition, on human GABAC-ρ1 receptor [2], the “Hill coefficient (nH)” value is 1.0, the EC50 stood at 70 ± 1.1 µM, the “activation time of the currents (τact)” value worked out at 1.8 ± 0.2 min and the “deactivation time (τdeac)” value turned out to be 6.7 ± 2.2 min.
Consider picrotoxin, for which the 50% inhibitory concentration (IC50) on human GABAC-ρ1 receptor [3] (setting [4]) turned out to be 100 ± 0.1 µM; on human GABAC-ρ1 receptor [3] (setting [5]), 105 ± 0.3 µM; at human GABAC-ρ1 receptor [3] (setting [6]), 100 ± 0.8 µM.

For the origin of these results see publication PMC6076408, “Differential modulation of human GABAC-ρ1 receptor by sulfur-containing compounds structurally related to taurine” (BMC Neuroscience, 2018).
